The values below come from US20250172566A1, “SACCHARIDE SENSING SYSTEMS” (CARBOMETRICS LIMITED, priority 2022, published 2025).

Assay [1] can be described thus: Fluorescent hydrogel phase glucose responsive assay (10 mM PBS, pH 7.4, 310 K). As to conditions: 20 mM D-glucose, GBM2 10 uM, FIM 1 uM. The procedure: The fluorescence spectrum of the corresponding hydrogel, already swollen in 200 μL of 10 mM PBS, in a well plate was recorded by exciting at the designated excitation frequency and monitoring at the typical emission maximum (Emmax). The PBS top solution was removed either by micropipette or by decanting onto an absorbent material. A 200 μL solution of D-glucose (in 10 mM PBS) at the required concentration was added to each hydrogel in the well plate and the system allowed to reach equilibrium. The emission spectra for each well were collected after this and compared to the original baseline emission, monitoring at the typical emission maximum (Emmax), and the percentage increase or decrease recorded. The change in emission was recorded for each hydrogel in the well plate (up to 96 individual hydrogel sensors) or an average of all wells was used. The hydrogel bound assays were then investigated for reproducibility by cycling with solutions of PBS or D-glucose. This was achieved by removal of the previous top solution (e.g. D-glucose) by micropipette or decanting onto an absorbent material and replacing with another solution (e.g. 10 mM PBS). […] Emission spectra acquired using a Clariostar plus plate reader.
(§1) Hydroxyethylmethacrylate (2.85 g), TEGDMA (0.15 g), VAZO-44 (0.12 mg), ethylene glycol (1.06 g) and water (1.33 g) were added to a glass vial and vortexed/sonicated until a homogeneous solution. Concentrated aliquots (<50 μL) of the appropriate GBM and FIM from pre-made stock solutions were added to give the required final concentrations of GBM and FIM (i.e. 50 μL of GBM stock solution at 1 mM gives a final GBM concentration of 10 μM in the pre-gel solution). A 50 μL aliquot of this GBM and FIM containing pre-gel solution was pipetted into each well of a transparent flat-bottomed polystyrene 96 well plate. 100 μL of n-butanol was layered on top of the pre-gel solution in each well plate and each well plate covered with a loose transparent well plate lid. The well plate was then placed in a nitrogen flushed desiccator, which was then placed into a pre-heated oven at 45° C. for 4 hours. The well plates were then removed from the oven, allowed to cool to RT and the top solution removed by decanting onto an absorbent material. The hydrogels were then washed and swelled by submerging in one litre of pure water or 10 mM PBS for 24 hours. Each well within the well plate containing hydrogel bound assay was then washed with D-glucose (50 mM) and then 10 mM PBS multiple times until the observed fluorescence emission stabilised to give a baseline emission value in 10 mM PBS. These hydrogels were then used for determining assay performance and reversibility studies.
as §1, with “(1.95” for “(2.85”, “PEGDA (0.57” for “TEGDMA (0.15”, “(0.04” for “(0.12”, “200 mM methyl-p-D-glucopyranoside (aqueous, 1.39” for “water (1.33”, “FIM.” for “FIM (i.e. 50 μL of GBM stock solution at 1 mM gives a final GBM concentration of 10 μM in the pre-gel solution).”, “hours.” for “hours. Each well within the well plate containing hydrogel bound assay was then washed with D-glucose (50 mM) and then 10 mM PBS multiple times until the observed fluorescence emission stabilised to give a baseline emission value in 10 mM PBS. These hydrogels were then used for determining assay performance and reversibility studies.”

A short description of assay [2]: Fluorescent solution phase glucose responsive assay (pH 7.4, 298 K). The following applies: Ex 560/Emmax 610 nm, medium B (10 mM PBS). In a few lines:
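Glucose binding molecule and fluorescent inhibitor molecule mixed in defined media at pH 7.4 and 298 K unless stated; baseline emission recorded, then D-glucose added stepwise to set final concentrations, e.g. 10 mM. After equilibration, percent change in emission at Emmax versus baseline recorded.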

The nature of assay [3]: Fluorescence lifetime glucose responsive assay (10 mM PBS, pH 7.4, 298 K). As to conditions: FIM 10 uM, Ex 450 nm.
Where [4] appears, read: Ex 470/Emmax 530 nm, hydrogel A (HEMA/TEGDMA).
The mark [5] stands for this setting: Ex 470/Emmax 530 nm, hydrogel C (polyacrylamide/bis-acrylamide).

Turning to `C=CC(=O)NC(Cc1cn(CCOCCOc2ccc(CCO[C@@H]3O[C@H](CO)[C@@H](O)[C@H](O)[C@H]3O)cc2)nn1)C(=O)Nc1ccc2c(c1)C(=O)OC21c2ccc(O)cc2Oc2cc(O)ccc21` (some centres unmarked) [FIM21], in assay [1] (setting [4]), the “Change in Emmax for FIM at a particular D-glucose concentration” value (“Change in Emmax for FIM” for short) is given as 0%.

For the molecule `C=CC(=O)NCCOCCOCCOCCOCCOCCOCCC(=O)NCCCC[C@@H](C(=O)Nc1ccc(CCO[C@@H]2O[C@H](CO)[C@@H](O)[C@H](O)[C@H]2O)cc1)n1cc(CNC(=O)c2ccc3c(c2)C(=O)OC32c3ccc(O)cc3Oc3cc(O)ccc32)nn1` [FIM23], the “Change in Emmax for FIM” value was found to be 10% in assay [1] (setting [4]) and 15% in assay [1] (setting [5]).

Take `C=CC(=O)NCCCC[C@@H](C(=O)Nc1ccc2c(c1)C(=O)OC21c2ccc(O)cc2Oc2cc(O)ccc21)n1cc(-c2ccc(CCO[C@@H]3O[C@H](CO)[C@@H](O)[C@H](O)[C@H]3O)cc2)nn1` [FIM22]: the “Change in Emmax for FIM” value is listed as 10% in assay [1] (setting [4]) and 15% in assay [1] (setting [5]).

`C=CC(=O)NCCOCCOCCOCCOCCOCCOCCC(=O)NCCCC[C@@H](C(=O)Nc1ccc(CCO[C@@H]2O[C@H](CO)[C@@H](O)[C@H](O)[C@H]2O)cc1)n1cc(CNC(=O)c2ccc(C(=O)O)c(-c3c4cc(C)c(=NCC)cc-4oc4cc(NCC)c(C)cc34)c2)nn1` [FIM16]: the “Change in Emmax for FIM” value in assay [1] (Ex 515/Emmax 550 nm, hydrogel A (HEMA/TEGDMA)) is listed as 45%; in assay [1] (Ex 515/Emmax 550 nm, hydrogel C (polyacrylamide/bis-acrylamide)), 50%.

On to `C=CC(=O)NCCOCCOCCOCCOCCOCCOCCC(=O)NCCCC[C@@H](C(=O)Nc1ccc2c(c1)C(=O)OC21c2ccc(O)cc2Oc2cc(O)ccc21)n1cc(-c2ccc(CCO[C@@H]3O[C@H](C(=O)O)[C@@H](O)[C@H](O)[C@H]3O)cc2)nn1` [FIM25], for which the “Change in Emmax for FIM” value in assay [1] (setting [4]) turned out to be 12%.

As for `CN1c2cc3c(cc2C(CS(=O)(=O)[O-])=CC1(C)C)C(c1ccc(C(=O)NCc2cn(CCOCCOCCOCCNC(=O)[C@H](Cc4cn(CCOCCOCCOCCOc5ccc(CCO[C@@H]6O[C@H](CO)[C@@H](O)[C@H](O)[C@H]6O)cc5)nn4)NC(=O)OC(C)(C)C)nn2)cc1C(=O)[O-])=c1cc2c(cc1O3)=[N+](C)C(C)(C)C=C2CS(=O)(=O)[O-].[Na+].[Na+]` [FIM10], the “Change in Emmax for FIM” value in assay [2] (5 mM D-glucose, GBM42 20 uM, FIM 5 uM) is given as 65%; in assay [2] (10 mM D-glucose, GBM42 20 uM, FIM 5 uM) it was 85%; in assay [2] (20 mM D-glucose, GBM42 20 uM, FIM 5 uM), 105%; in assay [2] (40 mM D-glucose, GBM40 5 uM, FIM 10 uM) it was −75%; in assay [2] (40 mM D-glucose, GBM42 20 uM, FIM 5 uM), 110%. In assay [3] (20 mM glucose, GBM40 5 uM), the “Fluorescence lifetime component τ1 for FIM and GBM at a particular glucose concentration” value is on record as 580 ns. Besides, the “Lifetime component τ1 of FIM only” value in assay [3] turned out to be 575 ns. In assay [3] (GBM40 5 uM), the “Lifetime component τ1 of FIM after GBM addition” value came out at 620 ns.

`C=CC(=O)NCCOCCOCCOCCOCCOCCOCCC(=O)NCCCC[C@@H](C(=O)Nc1ccc2c(c1)C(=O)OC21c2ccc(O)cc2Oc2cc(O)ccc21)n1cc(-c2ccc(CCO[C@@H]3O[C@H](CO)[C@@H](O)[C@H](O)[C@H]3O)cc2)nn1` [FIM24]: the “Change in Emmax for FIM” value in assay [1] (setting [4]) turned out to be 8%.
